Source: patent US10450610B2, “Single nucleotide polymorphisms (SNP) and association with resistance to immune tolerance induction” (University of Tennessee Research Foundation, priority 2008, dated 2019)
Several values for one entry are separate records, joined by “and”; a condition that tells them apart may be missing. Equal entries are not always repeated.

Experiments:
[1] = test system: BALB/c mice and DBA/1 lac J mice; test: Effect of commonly used immunomodulatory drugs on oral tolerance induction (oral OVA or oral bovine CII); assay type: in vivo; conditions: for effect on tolerance induction: oral OVA in BALB/c mice and oral bovine CII in DBA/1 lac J mice; for OT induction to CII: DBA/1 lac J mice, prednisone at 10 mg/day equivalent
Method: Further, studies were conducted using oral OVA (1 mg/day×5 days) in BALB/c mice and oral bovine CII (10 μg×8 doses over 14 days) in DBA/1 lac J mice to test the effects of commonly used immunomodulatory drugs on immune induction ([…], hydroxychloroquine 400 mg/day, methotrexate 17.5 mg/week, leflunomide 20 mg/day after 100 mg/day×3 loading doses, sulfasalazine 2.5 gm/day, D-penicillamine 750 mg/day, IM gold, and etanercept 25 mg twice weekly).

spleen cells [2] = test: COX-2 inhibitor SC′236 and oral tolerance induction; spleen cell IFNγ with α1(II) CB mixture (ELISA); assay type: in vivo, mice; conditions: for oral tolerance induction to CII: DBA/1 mice, assessed by IFNγ production by spleen cells
Method: Groups of 8 mice each were gavaged on MTTHF×2 weeks in the a.m. with PBS or SC′236 (5 μg/gm in 100 μl PBS). SC′236 (Searle) is ˜2000× more inhibitory for COX-2 than for COX-1.
Four of the mice given PBS in the a.m. and 4 mice given SC′236 in the a.m. were gavaged in the p.m. with 10 μg bovine type II collagen (CII). The other 4 mice in the a.m. PBS and a.m. SC′236 group were gavaged in the p.m. with 0.1M acetic acid (HAc) the vehicle the CII was dissolved in. After these 8 day feedings, all mice were rested for 1 week and then immunized with 100 μg of CII in complete Freund's adjuvant. After 10 days, all mice were sacrificed, and spleen cells (2×10^6/ml) were isolated and set up in culture with PBS and bovine α1(II) (50 μg/ml) CB mixture. After 4 days culture, the supernatants were harvested and IFNγ levels determined by ELISA (Endogen). Since the PBS+spleen cell culture from all mice produced between 1-12 pg/ml IFNγ, only the α1(II) data are plotted. All groups were compared to Placebo control group by Student's 2 sample t test.

DBA/1 mice = test: NSAID inhibition of oral tolerance induction to collagen II; arthritic joints scored; assay type: in vivo
Method: To determine whether tolerance induction to orally fed bovine CII in DBA/1 mice would be abrogated by orally fed NSAID, 3 groups of 20-22 DBA/1 mice were fed (by gavage) eight doses (Monday, Tuesday, Thursday, and Friday for 2 weeks) of the following: Placebo (saline) in the a.m. and Placebo (0.1 M HAc) in the p.m.; Placebo (saline) in the a.m. and 10 μg native bovine CII in the p.m.; or piroxicam (2.4 μg/gm) in the a.m. and native bovine CII (10 μg) in the p.m. After 1 week, all mice were immunized (intradermally at the base of tail) with 100 μg of bovine CII emulsified in complete Freund's adjuvant. Animals were placed in coded cages and were scored by a blinded observer twice weekly for the number of arthritic joints (joints swollen, red, and/or deformed).

spleen cells [3] = test: IFNγ production by spleen cells of fed, CII-immunized mice cultured with α1(II) CB peptide mixture (ELISA); assay type: in vivo; conditions: fed with Placebo (alone); FIG. 8
Text: To assess the effect of oral feeding of piroxicam to another group of mice fed Placebo or CII on spleen cell IFNγ production in a manner similar to the experiment in FIG. 7, four groups of mice (4 mice per group) were gavaged 8 days over 2 weeks with the following: Piroxicam a.m.—CII p.m.; Piroxicam a.m.—HAc p.m.; Saline a.m.—CII p.m.; or Saline a.m.—HAc p.m. After 1 week rest, all mice were immunized at the base of the tail with a CII—complete Freund's adjuvant emulsion. After 14 days, mice ere sacrificed, and spleen cells were isolated and set up in culture with PBS or α1(II)CB peptide mixture. After 72 h culture, harvested supernatants ere analyzed for IFNγ levels by ELISA.

[4] = test system: mesenteric lymph node cells; test: Mesenteric lymph node cell proliferation with α1(II) CB peptide mixture; assay type: in vivo, mice; conditions: mice fed either CII or piroxicam alone; FIG. 12
DBA/1 Lac mice = test: Low dose oral collagen II tolerance induction; arthritis after CII/CFA immunization; assay type: in vivo; conditions: 8 times over 2 weeks, FIG. 6
Method: Groups of 12 mice were fed oral CII at the doses indicated 8 times over 2 weeks […]. After 4 days rest, the mice were then immunized at the base of the tail with 100 μg CII emulsified with complete Freund's adjuvant. The degree of arthritis was assessed by a blinded observer for 8 weeks.
The percent of mice with grade 3 or 4 arthritis is indicated on the Y-axis. The biphasis response is due to induction of different tolerance mechanisms by low dose vs high dose CII. Low dose CII (10μg) induces regulatory T cells while high dose (500 μg) induces anergy or clonal deletion.

PBMC = test: Oral collagen II in RA patients; IFNγ production (stimulation index) by PBMC cultured with α1(II); assay type: in vivo, human; conditions: for non-responders to oral CII: FIG. 13
Method: Immunological tolerance, defined as a ≥30% reduction in IFN-γ production by PBMC cultured with α1(II) of type II collagen, was examined in patients. Patients that were taking disease-modifying antirheumatic drugs, anti-TNF agents and/or non steroidal inflammatories were administered misoprostol 100 μg bid to reverse the non steroidal antiinflammatory inhibition of oral tolerance. Patients were randomized to receive “low” or “high” doses of CII. The Low Dose group (n=38) took daily 30 μg/day bovine CII for 10 weeks, then 50 μg/day for 10 weeks and then 70 μg/day for 10 weeks. The High Dose group (n=41) took 90 μg/day for 10 weeks, 110 μg/day for 10 weeks and then 130 μg/day for 10 weeks.
Heparinized blood was obtained at baseline and after each of the 10 week treatment periods. The blood was diluted 1:3 with RPMI 1640 containing penicillin (100 u/ml) and streptomycin (100 μg/ml) within 1-4 hours after collection, wrapped in paper, and placed in a styrofoam box containing a “cold pack” and shipped overnight. The PBMC were isolated from the blood samples and set up in culture with bovine α1(II) 25 μg/ml, PHA 10 μg/ml or with 50 ul PBS. After 6 days in culture, cell free supernatants were collected and stored at −70° for up to 7 months at which time all samples from a given patient were assayed for IFNγ by commercial ELISA (R & D Systems). The results are shown as in FIG. 13.
The IFNγ stimulation index (SI) was calculated as
[formula] The SI for patients receiving each of the low doses (30 μg, 50 μg and 70 μg/day) was compared with their SI at baseline before each of the 10 week treatments and similarly with the high dose CII group (90 μg, 110 μg and 130 μg/day) with their SI at baseline before each of the 10 week treatments.
SNP analysis was performed of 16 responders and 8 non-responders to oral CII to find the frequency of SNPs closely associated on chromosomes next to several cytokines and chemokines known to be important for oral tolerance induction. The 16 patients were those with had ≥50% reduction in IFNγ α1 stimulation index from baseline to either the 30 μg/day, 50 μg/day, 110 μg/day or 130 μg/day dose of CII (“OT Responders”). The 8 patients with increases in IFNγ α1 S.I. at the 30 μg/day, 50 μg/day, 110 μg/day or 130 μg/day doses of oral CII were selected (“OT Non-Responders”).

[5] = individual RA patients, No SNP A-1515737 AA genotype
[6] = individual RA patients, SNP A-1515737 AA genotype

## CC(C)(S)[C@@H](N)C(=O)O [D-penicillamine]
[1]
  effect on tolerance induction: did not completely suppress tolerance

## NS(=O)(=O)c1ccc(-n2nc(C(F)(F)F)cc2-c2ccc(Cl)cc2)cc1 [SC′236]
Spleen cells [2]; listed as SC236
  oral tolerance induction to CII: blocked oral tolerance induction
Spleen cells [2]; listed as SC'236
  oral tolerance induction to CII: abrogates oral tolerance induction
Spleen cells [2]; SC′236 5 μg/gm fed alone, FIG. 9
  IFNγ production by spleen cells stimulated by α1(II) CB digest: lower IFNγ production
Spleen cells [2]; SC′236 + CII fed, p<0.01, FIG. 9
  IFNγ production by spleen cells cultured with α1(II) CB digest: significant increase

## CC(=O)OC[C@H]1O[C@@H]([S-])[C@H](OC(C)=O)[C@@H](OC(C)=O)[C@@H]1OC(C)=O.CCP(CC)CC.[Au+] [auranofin]
[1]
  OT induction to CII: did block OT induction to CII

## CCN(CCO)CCCC(C)Nc1ccnc2cc(Cl)ccc12 (centres unmarked) [hydroxychloroquine]
[1]
  effect on tolerance induction: did not completely suppress tolerance

## Cc1oncc1C(=O)Nc1ccc(C(F)(F)F)cc1 [leflunomide]
[1]
  effect on tolerance induction: did not completely suppress tolerance

## CN(Cc1cnc2nc(N)nc(N)c2n1)c1ccc(C(=O)N[C@@H](CCC(=O)O)C(=O)O)cc1 [methotrexate]
[1]
  effect on tolerance induction: did not completely suppress tolerance

## COc1ccc2cc(CCC(C)=O)ccc2c1 [nabumatone]
DBA/1 mice; DBA/1 mice fed CII, FIG. 7 / similar studies (data not shown)
  oral tolerance (OT) induction: abrogated OT induction

## C[C@]12C=CC(=O)C=C1CC[C@@H]1[C@@H]2C(=O)C[C@@]2(C)[C@H]1CC[C@]2(O)C(=O)CO [prednisone]
[1]
  OT induction to CII: did block OT induction to CII
  effect on tolerance induction: did not completely suppress tolerance

## O=C(O)c1cc(/N=N/c2ccc(S(=O)(=O)Nc3ccccn3)cc2)ccc1O [sulfasalazine]
[1]
  effect on tolerance induction: did not completely suppress tolerance

## bovine type II collagen [CII]
Spleen cells [3]
  IFNγ production by spleen cells cultured with α1(II) CB peptide mixture: reduced production of IFNγ
[4]
  proliferation in response to α1(II) CB peptide mixture: did not proliferate
DBA/1 mice; Placebo+CII (10 μg, eight doses) vs Placebo+Placebo fed controls, p<0.03, FIG. 7
  percent of arthritic joints: less
DBA/1 Lac mice; 10 μg/day oral CII
  incidence of arthritis (percent of mice with grade 3 or 4 arthritis): most effective in reducing the incidence of arthritis
DBA/1 Lac mice; 500 μg/day oral CII
  incidence of arthritis (percent of mice with grade 3 or 4 arthritis): also, but less, effective
PBMC; 30 μg, 50 μg and 110 μg/day of oral CII
  suppression of IFNγ production (dose response): maximal suppression
PBMC; 70 μg and 90 μg/day doses
  IFNγ SI: did not reduce
PBMC; 70 μg/day dose
  IFNγ SI compared to baseline values: significantly increased
PBMC; 30, 50 and 110 μg/day oral CII
  patients with a 50% reduction in α1(II) stimulated IFNγ production: 69%
PBMC; 30-50 μg/day dose
  non-responders to oral CII: 30%
PBMC; 110-130 μg/day dose
  non-responders to oral CII: 28%
PBMC; AA genotype
  number of CII OT Non-Responder patients: 7
  number of CII OT Responder patients: 1
PBMC; Non-AA genotype
  number of CII OT Non-Responder patients: 2
  number of CII OT Responder patients: 15
PBMC; group mean, No SNP A-1515737 AA genotype
  Ratio: After/baseline (IFNγ α1(II) SI): 0.427 ± 0.217
PBMC; group mean, No SNP A-1515737 AA genotype (17 patients)
  α1(II) SI After Oral CII: 175 ± 46
PBMC; group mean, SNP A-1515737 AA genotype
  Ratio: After/baseline (IFNγ α1(II) SI): 3.512 ± 1.347
PBMC; group mean, SNP A-1515737 AA genotype (7 patients)
  α1(II) SI After Oral CII: 613 ± 256
PBMC; [5]
  OT Responder: Yes (15×) and No (2×)
  Ratio: After/baseline (IFNγ α1(II) SI): 0.4932 and 1.9178 and 2.9064 and 0.0573 and 0.1034 and 0.4119 and 0.0789 and 0.0694 and 0.0631 and 0 and 0.0018 and 0.0176 and 0.3520 and 0.0423 and 0.2454 and 0.0030 and 0.1008
PBMC; individual RA patients, No SNP A-1515737 AA genotype, 30, 50 or 110 μg/day for 10 weeks
  α1(II) SI After Oral CII: 360 and 280 and 590 and 152 and 6 and 276 and 18 (2×) and 503 and 19 and 0 and 3 and 7 and 358 and 93 and 540 and 246
PBMC; [6]
  OT Responder: No (6×) and Yes
  Ratio: After/baseline (IFNγ α1(II) SI): 2.3774 and 5.0500 and 2.9778 and 10.8021 and 0.0040 and 1.3688 and 2.0050
PBMC; individual RA patients, SNP A-1515737 AA genotype, 30, 50 or 110 μg/day for 10 weeks
  α1(II) SI After Oral CII: 630 and 404 and 268 and 2020 and 3 and 167 and 800
PBMC; patients taking DMARDs, anti-TNF agents and NSAIDS, low dose misoprostol given
  oral tolerance to CII (reduced immune response to fed antigen): can be induced
PBMC; patients who carried SNP A-1515737 AA, p=0.230
  IFNγ α1(II) S.I. after oral CII treatment: no significant change
PBMC; patients without SNP A-1515737 AA (ROT1 AA) genotype, p<0.001
  IFNγ α1(II) S.I. after oral CII compared to baseline values: significant reduction
PBMC; ten weeks treatment with 30, 50, 110 and 130 μg/day oral CII, vs baseline
  IFNγ SI: marked suppression
Spleen cells [2]; CII 10 μg fed, vs Placebo control, p<0.025, FIG. 9
  IFNγ production by spleen cells stimulated by α1(II) CB digest: significant reduction

## etanercept
[1]
  effect on tolerance induction: did not completely suppress tolerance
